# Values joined by “and” are separate entries in the source; they are usually repeats but may differ in a detail not shown here. Equal values may be shown once. Marks after values point to notes of the source that are not given here.
# Tested on: patients with ALS
# Assay: Part 2: 4-week single-blind placebo washout period (withdrawal effects)
# [1] = 50 mg during Part 1, placebo washout period
# [2] = 150 mg during Part 1, placebo washout period
compound,measurement,setting,value
"CCCN[C@@H]1CCc2nc(N)sc2C1 [dexpramipexole, (6R)-2-amino-4,5,6,7-tetrahydro-6-(propylamino)benzothiazole]","Neutrophil Count, Mean (SD)","50 mg during Part 1, Baseline (Part 1: Week 12)",4.539 (1.3112) ×10^3/μL
same,"Neutrophil Count, Mean (SD)","50 mg during Part 1, Part 2: Week 4 (end of placebo washout)",4.470 (1.3436) ×10^3/μL
same,ALS-related TEAE: Disease progression,[1],1 (5%) N (%)
same,ALS-related TEAE: Dyspnoea,[1],1 (5%) N (%)
same,ALS-related TEAE: Fall,[1],2 (9%) N (%)
same,ALS-related TEAE: General Disorders and Administration Site Conditions,[1],2 (9%) N (%)
same,"ALS-related TEAE: Injury, Poisoning and Procedural Complications",[1],2 (9%) N (%)
same,ALS-related TEAE: Muscle spasms,[1],1 (5%) N (%)
same,ALS-related TEAE: Muscular weakness,[1],4 (18%) N (%)
same,ALS-related TEAE: Musculoskeletal and Connective Tissue Disorders,[1],4 (18%) N (%)
same,"ALS-related TEAE: Respiratory, Thoracic and Mediastinal Disorders",[1],1 (5%) N (%)
same,"Neutrophil Count, Mean Δ (SD) from baseline to Week 4",[1],−0.022 (0.7157) ×10^3/μL
same,Number of TEAEs,[1],18
same,Number of serious TEAEs,[1],2
same,Number of severe TEAEs,[1],2
same,Number of treatment-related TEAEs,[1],2
same,Subjects with a TEAE with action taken of study drug discontinued,[1],0 N (%)
same,Subjects with ≧1 ALS-related TEAE,[1],7 (32%) N (%)
same,TEAE: Anxiety,[1],1 (5%) N (%)
same,TEAE: Back pain,[1],2 (9%) N (%)
same,TEAE: Constipation,[1],0 N (%)
same,TEAE: Cough,[1],0 N (%)
same,TEAE: Diarrhoea,[1],0 N (%)
same,TEAE: Dyspnoea,[1],1 (5%) N (%)
same,TEAE: Fall,[1],2 (9%) N (%)
same,TEAE: Gastrointestinal Disorders,[1],0 N (%)
same,TEAE: General Disorders and Administration Site Conditions,[1],2 (9%) N (%)
same,"TEAE: Injury, Poisoning and Procedural Complications",[1],2 (9%) N (%)
same,TEAE: Muscle spasms,[1],1 (5%) N (%)
same,TEAE: Muscular weakness,[1],4 (18%) N (%)
same,TEAE: Musculoskeletal and Connective Tissue Disorders,[1],6 (27%) N (%)
same,TEAE: Nausea,[1],0 N (%)
same,TEAE: Post lumbar puncture syndrome,[1],0 N (%)
same,TEAE: Psychiatric Disorders,[1],1 (5%) N (%)
same,TEAE: Pyrexia,[1],1 (5%) N (%)
same,"TEAE: Respiratory, Thoracic and Mediastinal Disorders",[1],1 (5%) N (%)
same,mean change from baseline in ALSFRS-R score over 4 weeks,[1],−0.7
same,mean change from baseline in VC over 4 weeks,[1],−2.9%
same,serious TEAE: Disease progression,[1],1 (5%)^a N (%)
same,serious TEAE: Dyspnoea,[1],1 (5%)^a N (%)
same,serious TEAE: General Disorders and Administration Site Conditions,[1],1 (5%) N (%)
same,serious TEAE: Renal and Urinary Disorders,[1],0 N (%)
same,"serious TEAE: Respiratory, Thoracic and Mediastinal Disorders",[1],1 (5%) N (%)
same,serious TEAE: Urethral obstruction,[1],0 N (%)
same,serious TEAE: Urinary retention,[1],0 N (%)
same,≧1 TEAE,[1],9 (41%) N (%)
same,≧1 TEAE with an outcome of death,[1],2 N (%) and 2 (9%) N (%)
same,≧1 serious TEAE (including death),[1],2 (9%) N (%)
same,≧1 serious treatment-related TEAE,[1],0 N (%)
same,≧1 severe TEAE,[1],2 (9%) N (%)
same,≧1 treatment-related TEAE,[1],2 (9%) N (%)
same,"Neutrophil Count, Mean (SD)","150 mg during Part 1, Baseline (Part 1: Week 12)",3.931 (1.4130) ×10^3/μL
same,"Neutrophil Count, Mean (SD)","150 mg during Part 1, Part 2: Week 4 (end of placebo washout)",4.753 (1.5327) ×10^3/μL
same,ALS-related TEAE: Disease progression,[2],0 N (%)
same,ALS-related TEAE: Dyspnoea,[2],0 N (%)
same,ALS-related TEAE: Fall,[2],3 (12%) N (%)
same,ALS-related TEAE: General Disorders and Administration Site Conditions,[2],0 N (%)
same,"ALS-related TEAE: Injury, Poisoning and Procedural Complications",[2],3 (12%) N (%)
same,ALS-related TEAE: Muscle spasms,[2],1 (4%) N (%)
same,ALS-related TEAE: Muscular weakness,[2],1 (4%) N (%)
same,ALS-related TEAE: Musculoskeletal and Connective Tissue Disorders,[2],2 (8%) N (%)
same,"ALS-related TEAE: Respiratory, Thoracic and Mediastinal Disorders",[2],1 (4%) N (%)
same,"Neutrophil Count, Mean Δ (SD) from baseline to Week 4",[2],0.841 (1.1854) ×10^3/μL
same,Number of TEAEs,[2],29
same,Number of serious TEAEs,[2],0
same,Number of severe TEAEs,[2],0
same,Number of treatment-related TEAEs,[2],5
same,Subjects with a TEAE with action taken of study drug discontinued,[2],0 N (%)
same,Subjects with ≧1 ALS-related TEAE,[2],7 (28%) N (%)
same,TEAE: Anxiety,[2],0 N (%)
same,TEAE: Back pain,[2],0 N (%)
same,TEAE: Constipation,[2],1 (4%) N (%)
same,TEAE: Cough,[2],2 (8%) N (%)
same,TEAE: Diarrhoea,[2],2 (8%) N (%)
same,TEAE: Dyspnoea,[2],0 N (%)
same,TEAE: Fall,[2],3 (12%) N (%)
same,TEAE: Gastrointestinal Disorders,[2],5 (20%) N (%)

# Source: US20130245081A1, “Compositions and Methods for Treating Amyotrophic Lateral Sclerosis” (priority 2009, published 2013)
